Reference: patent publication US20220401468A1 (priority 2021, published 2022)

Key:
[1] = human, in vivo; cited from earlier work
[2] = system: SARS-CoV-2 (USA-WA1/2020); assay type: cell-based; conditions: Vero-E6 cells, 400 PFU/well, viral titer from plaque assay at 24 h post-infection
SARS-CoV-2 spike protein = SARS-CoV-2 spike protein (Severe acute respiratory syndrome coronavirus 2, UniProt P0DTC2); conditions: cited from earlier work

Substance | serum IL-6 levels [1] | IC50, SARS-CoV-2 infection [2] | probability of survival [1] | risk of significant bleeding [1] | binding affinity (SARS-CoV-2 spike protein)
low-molecular-weight heparin | lower serum IL-6 levels | – | – | – | –
Heparin sodium salt | – | 0.05 µg/mL | increased the probability of survival | 10-15% | high-picomolar affinity
